Results: US20250136595A1, “ACYLATED HETEROCYCLIC QUINAZOLINE DERIVATIVES AS INHIBITORS OF ERBB2” (Enliven Inc., priority 2022, published 2025)

Tests used:
[1] = molecular target: Ba/F3 ERBB2 YVMA (Homo sapiens, UniProt P04626, DUP772-775, cells depend on it); test: Cell viability assay (CellTiter Glo) in Ba/F3 cells engineered to express ERBB2 YVMA; format: cell-based, mouse; details: Ba/F3 cells expressing human ERBB2 YVMA mutant, 72 hours, % viability, read-out: Ba/F3 ERBB2 YVMA IC50
How it was run: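 IL-3-independent mouse Ba/F3 line stably transduced with human ERBB2 YVMA, seeded at 3000 cells/well, exposed to serially diluted compound (≤0.1% DMSO) for 72 h at 37° C. ATP read by CellTiter Glo luminescence, normalised to DMSO and media-only controls; sigmoidal nonlinear regression fit.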

[2] = molecular target: T1, phosphorylated ERBB2 (pERBB2) (Homo sapiens, UniProt P04626); test: Detection of phosphorylated ERBB2 (pERBB2) by ELISA in BT-474 cells; format: cell-based; details: four hour incubation with compound
T1 construct: endogenous in cells; host or cells: BT-474
How it was run: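 BT-474 cells treated 4 h at 37 °C, 5% CO2 with four-fold dilutions (10 μM to 0.01 nM final). Lysates analysed by ELISA for pERBB2, TMB read at OD 450 nm. % relative activity normalised to no-cell (low) and 0.1% DMSO-treated (high) controls.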

[3] = molecular target: T2, phosphorylated EGFR (pEGFR) (Homo sapiens, UniProt P00533); test: Detection of phosphorylated EGFR (pEGFR) in EGF-stimulated A431 cells (AlphaLISA); format: cell-based; details: A431 cells (10% FBS), 4 hours incubation, EGF 30 ng/mL for 10 minutes
T2 construct: performed to measure phosphorylated EGFR levels using A431 cells; endogenous in cells; host or cells: A431
How it was run: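 Cells in 10% FBS treated with compound 4 h at 37° C., then stimulated 10 min with 30 ng/mL EGF, lysed, and pEGFR measured by AlphaLISA. Inhibition normalized to DMSO and staurosporine controls; IC50 from four-parameter logistic fit.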

T2 sequence (P00533 25-1210): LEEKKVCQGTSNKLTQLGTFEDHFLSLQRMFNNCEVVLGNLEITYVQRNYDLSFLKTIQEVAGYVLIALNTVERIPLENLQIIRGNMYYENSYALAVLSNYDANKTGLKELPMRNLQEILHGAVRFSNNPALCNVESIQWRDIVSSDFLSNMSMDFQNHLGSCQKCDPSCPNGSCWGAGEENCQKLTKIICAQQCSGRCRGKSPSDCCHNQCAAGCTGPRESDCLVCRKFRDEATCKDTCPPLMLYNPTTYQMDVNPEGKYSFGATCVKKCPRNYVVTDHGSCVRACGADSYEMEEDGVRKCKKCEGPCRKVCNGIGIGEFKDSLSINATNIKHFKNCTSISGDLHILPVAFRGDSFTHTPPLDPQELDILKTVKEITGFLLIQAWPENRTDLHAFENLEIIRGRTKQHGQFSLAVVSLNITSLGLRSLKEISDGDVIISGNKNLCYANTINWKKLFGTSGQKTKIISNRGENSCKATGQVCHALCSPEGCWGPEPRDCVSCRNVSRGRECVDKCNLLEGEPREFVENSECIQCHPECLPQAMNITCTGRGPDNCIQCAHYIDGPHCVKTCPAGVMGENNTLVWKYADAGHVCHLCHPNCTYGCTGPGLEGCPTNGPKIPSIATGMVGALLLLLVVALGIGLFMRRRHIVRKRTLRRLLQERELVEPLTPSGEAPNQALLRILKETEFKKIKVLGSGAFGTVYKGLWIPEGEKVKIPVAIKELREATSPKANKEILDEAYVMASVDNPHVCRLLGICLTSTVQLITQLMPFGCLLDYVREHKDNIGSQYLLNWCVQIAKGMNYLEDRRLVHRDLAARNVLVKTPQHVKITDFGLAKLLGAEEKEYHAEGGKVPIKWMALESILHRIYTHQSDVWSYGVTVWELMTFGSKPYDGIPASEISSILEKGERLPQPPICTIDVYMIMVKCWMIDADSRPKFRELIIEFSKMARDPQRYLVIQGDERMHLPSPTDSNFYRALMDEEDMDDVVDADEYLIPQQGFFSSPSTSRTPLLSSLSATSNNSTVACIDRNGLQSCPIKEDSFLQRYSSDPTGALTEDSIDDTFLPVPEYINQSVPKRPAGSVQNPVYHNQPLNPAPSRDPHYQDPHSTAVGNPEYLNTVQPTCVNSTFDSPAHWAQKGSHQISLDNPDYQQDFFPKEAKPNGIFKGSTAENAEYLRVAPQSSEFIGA
Sequence of Ba/F3 ERBB2 YVMA (P04626 with tags, fused parts or gaps DUP772-775): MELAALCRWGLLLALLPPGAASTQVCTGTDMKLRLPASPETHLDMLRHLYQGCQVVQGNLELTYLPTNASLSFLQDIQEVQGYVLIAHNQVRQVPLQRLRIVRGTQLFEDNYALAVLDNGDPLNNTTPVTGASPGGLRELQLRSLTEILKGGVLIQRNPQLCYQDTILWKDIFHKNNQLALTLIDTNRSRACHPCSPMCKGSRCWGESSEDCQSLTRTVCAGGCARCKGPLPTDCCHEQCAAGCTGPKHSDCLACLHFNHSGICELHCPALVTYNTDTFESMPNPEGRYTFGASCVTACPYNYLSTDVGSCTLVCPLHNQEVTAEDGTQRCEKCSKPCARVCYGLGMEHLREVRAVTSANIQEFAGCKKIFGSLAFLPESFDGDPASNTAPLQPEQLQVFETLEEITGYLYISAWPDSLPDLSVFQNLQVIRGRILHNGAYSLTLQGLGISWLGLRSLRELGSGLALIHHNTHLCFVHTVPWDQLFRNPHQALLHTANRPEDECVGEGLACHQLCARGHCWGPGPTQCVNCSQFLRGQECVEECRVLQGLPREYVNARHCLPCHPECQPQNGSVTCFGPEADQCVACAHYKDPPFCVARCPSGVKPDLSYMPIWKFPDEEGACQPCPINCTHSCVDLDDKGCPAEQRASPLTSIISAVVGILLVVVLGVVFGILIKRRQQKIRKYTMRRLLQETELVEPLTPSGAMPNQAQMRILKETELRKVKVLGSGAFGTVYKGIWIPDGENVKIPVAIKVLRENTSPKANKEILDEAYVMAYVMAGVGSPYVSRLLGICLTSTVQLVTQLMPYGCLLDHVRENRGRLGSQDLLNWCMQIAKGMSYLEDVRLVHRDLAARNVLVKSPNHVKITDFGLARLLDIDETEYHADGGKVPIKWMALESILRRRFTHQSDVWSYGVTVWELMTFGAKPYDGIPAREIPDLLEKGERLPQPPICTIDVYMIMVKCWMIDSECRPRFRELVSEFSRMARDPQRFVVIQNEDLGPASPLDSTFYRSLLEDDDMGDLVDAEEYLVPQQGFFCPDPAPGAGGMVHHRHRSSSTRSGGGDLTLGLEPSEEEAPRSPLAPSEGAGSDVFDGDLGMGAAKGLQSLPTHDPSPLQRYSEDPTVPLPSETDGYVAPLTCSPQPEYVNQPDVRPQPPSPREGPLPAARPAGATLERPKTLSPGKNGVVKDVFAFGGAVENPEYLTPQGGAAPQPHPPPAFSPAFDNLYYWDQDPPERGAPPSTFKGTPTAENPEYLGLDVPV
T1 sequence (P04626 23-1255): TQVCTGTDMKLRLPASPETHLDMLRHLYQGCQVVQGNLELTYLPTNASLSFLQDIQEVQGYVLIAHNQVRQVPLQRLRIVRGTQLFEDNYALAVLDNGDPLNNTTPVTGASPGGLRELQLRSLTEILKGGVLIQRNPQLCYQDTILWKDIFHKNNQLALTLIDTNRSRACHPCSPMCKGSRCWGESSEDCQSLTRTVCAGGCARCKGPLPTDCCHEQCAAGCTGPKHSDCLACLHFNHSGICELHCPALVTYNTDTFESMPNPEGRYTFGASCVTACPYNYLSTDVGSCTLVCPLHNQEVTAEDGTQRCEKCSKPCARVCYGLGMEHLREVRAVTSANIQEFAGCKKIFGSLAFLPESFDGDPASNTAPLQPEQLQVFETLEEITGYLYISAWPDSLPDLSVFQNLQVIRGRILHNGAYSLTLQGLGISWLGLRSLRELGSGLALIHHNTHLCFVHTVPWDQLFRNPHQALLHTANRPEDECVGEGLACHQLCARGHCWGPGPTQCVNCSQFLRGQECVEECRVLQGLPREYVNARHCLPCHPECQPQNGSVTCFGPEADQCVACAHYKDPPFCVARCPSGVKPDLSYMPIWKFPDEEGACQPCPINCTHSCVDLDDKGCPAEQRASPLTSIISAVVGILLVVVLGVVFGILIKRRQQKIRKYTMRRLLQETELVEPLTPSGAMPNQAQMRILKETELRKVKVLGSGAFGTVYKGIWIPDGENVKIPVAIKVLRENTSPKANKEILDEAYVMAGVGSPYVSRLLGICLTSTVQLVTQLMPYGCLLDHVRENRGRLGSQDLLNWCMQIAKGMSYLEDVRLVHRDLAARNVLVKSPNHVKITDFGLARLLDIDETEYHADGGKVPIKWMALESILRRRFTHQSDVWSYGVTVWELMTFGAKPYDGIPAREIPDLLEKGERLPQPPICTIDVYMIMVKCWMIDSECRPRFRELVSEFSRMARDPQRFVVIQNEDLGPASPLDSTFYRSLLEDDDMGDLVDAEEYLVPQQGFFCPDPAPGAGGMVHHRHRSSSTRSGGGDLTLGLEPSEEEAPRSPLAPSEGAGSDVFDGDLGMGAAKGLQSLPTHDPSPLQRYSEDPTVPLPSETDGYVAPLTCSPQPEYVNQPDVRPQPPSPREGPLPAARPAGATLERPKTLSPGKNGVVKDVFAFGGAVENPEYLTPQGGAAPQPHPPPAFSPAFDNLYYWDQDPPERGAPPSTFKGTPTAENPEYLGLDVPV

Compound	GI50 [1]	IC50 [2]	IC50 [3]
C=CC(=O)N1CCN(c2ccc3ncnc(Nc4ccc(Oc5ccn6ncnc6c5)c(C)c4)c3n2)CC1(C)C [Compound 108, 1-(4-(4-((4-([1,2,4]triazolo[1,5-a]pyridin-7-yloxy)-3-methylphenyl)amino)pyrido[3,2-d]pyrimidin-6-yl)-2,2-dimethylpiperazin-1-yl)prop-2-en-1-one]	10.9 nM	10 nM	695 nM
CC#CC(=O)N1CCN(c2ccc3ncnc(Nc4ccc(O[C@H]5CCCOC5)c(C)c4)c3n2)CC1 [Compound 33, 1-{4-[4-({3-methyl-4-[(3S)-oxan-3-yloxy]phenyl}amino)pyrido[3,2-d]pyrimidin-6-yl]piperazin-1-yl}but-2-yn-1-one]	237 nM	524 nM	4050 nM
C=CC(=O)N1CCN(c2ncc3ncnc(Nc4ccc(Oc5ccc6c(c5)ncn6C)c(C)c4)c3n2)CC1 [Compound 130, 1-(4-(8-((3-methyl-4-((1-methyl-1H-benzo[d]imidazol-5-yl)oxy)phenyl)amino)pyrimido[5,4-d]pyrimidin-2-yl)piperazin-1-yl)prop-2-en-1-one]	15 nM	13 nM	1480 nM
C=CC(=O)N1CCN(c2ccc3ncnc(Nc4ccc(Cc5ccc6c(c5)ncn6C)c(C)c4)c3c2)C[C@H]1C [Compound 54, 1-[(2R)-2-methyl-4-[4-({3-methyl-4-[(1-methyl-1,3-benzodiazol-5-yl)methyl]phenyl}amino)quinazolin-6-yl]piperazin-1-yl]prop-2-en-1-one]	48.2 nM	21.9 nM	2420 nM
C=CC(=O)N1CCC[C@@H](Nc2ccc3ncnc(Nc4ccc(Oc5ccn6ncnc6c5)c(C)c4)c3n2)C1 [Compound 42, 1-[(3R)-3-({4-[(3-methyl-4-{[1,2,4]triazolo[1,5-a]pyridin-7-yloxy}phenyl)amino]pyrido[3,2-d]pyrimidin-6-yl}amino)piperidin-1-yl]prop-2-en-1-one]	219 nM	29.7 nM	> 10000 nM
CC#CC(=O)N1CC2CCC(C1)N2c1ccc2ncnc(Nc3ccc(Oc4ccc5c(c4)ncn5C)c(C)c3)c2n1 [Compound 75, 1-(8-(4-((3-methyl-4-((1-methyl-1H-benzo[d]imidazol-5-yl)oxy)phenyl)amino)pyrido[3,2-d]pyrimidin-6-yl)-3,8-diazabicyclo[3.2.1]octan-3-yl)but-2-yn-1-one]	8.19 nM	42.3 nM	4060 nM
C=CC(=O)N1C2CCC1CN(c1ccc3ncnc(Nc4ccc(Oc5ccc6c(c5)ncn6C)c(C)c4)c3n1)C2 [Compound 74, 1-(3-(4-((3-methyl-4-((1-methyl-1H-benzo[d]imidazol-5-yl)oxy)phenyl)amino)pyrido[3,2-d]pyrimidin-6-yl)-3,8-diazabicyclo[3.2.1]octan-8-yl)prop-2-en-1-one]	27.9 nM	37.2 nM	1030 nM
C=CC(=O)N1CCN(c2ccc3ncnc(Nc4ccc(O[C@@H]5CCCOC5)c(C)c4)c3c2)CC1 [Compound 102, 1-{4-[4-({3-methyl-4-[(3R)-oxan-3-yloxy]phenyl}amino)quinazolin-6-yl]piperazin-1-yl}prop-2-en-1-one]	43.9 nM	47.6 nM	244 nM
C=CC(=O)N1CCN(c2ccc3ncnc(Nc4ccc(Cc5ccc6c(c5)ncn6C)c(C)c4)c3n2)CC1 [Compound 82, 1-{4-[4-({3-methyl-4-[(1-methyl-1,3-benzodiazol-5-yl)methyl]phenyl}amino)pyrido[3,2-d]pyrimidin-6-yl]piperazin-1-yl}prop-2-en-1-one]	93.9 nM	54.1 nM	2090 nM
CC#CC(=O)N1CCN(c2ccc3ncnc(Nc4ccc(Oc5ccn6ncnc6c5)c(C)c4)c3n2)C[C@H]1C [Compound 23, 1-[(2R)-2-methyl-4-{4-[(3-methyl-4-{[1,2,4]triazolo[1,5-a]pyridin-7-yloxy}phenyl)amino]pyrido[3,2-d]pyrimidin-6-yl}piperazin-1-yl]but-2-yn-1-one]	7.17 nM	25.2 nM	530 nM
Cc1cc(Nc2ncnc3ccc(N4CCN(C(=O)/C=C/CN(C)C)[C@H](C)C4)nc23)ccc1Oc1ccn2ncnc2c1 [Compound 116, (R,E)-1-(4-(4-((4-([1,2,4]triazolo[1,5-a]pyridin-7-yloxy)-3-methylphenyl)amino)pyrido[3,2-d]pyrimidin-6-yl)-2-methylpiperazin-1-yl)-4-(dimethylamino)but-2-en-1-one]	10.1 nM	21.9 nM	1790 nM
CC#CC(=O)N1CCN(c2ccc3ncnc(Nc4ccc(O[C@@H]5CCCOC5)c(C)c4)c3n2)CC1 [Compound 32, 1-{4-[4-({3-methyl-4-[(3R)-oxan-3-yloxy]phenyl}amino)pyrido[3,2-d]pyrimidin-6-yl]piperazin-1-yl}but-2-yn-1-one]	288 nM	334 nM	3820 nM
Cc1cc(Nc2ncnc3ccc(N4CCN(C(=O)/C=C/CN(C)C)C[C@@H]4C)nc23)ccc1Cc1ccn2ncnc2c1 [Compound 105, (2E)-4-(dimethylamino)-1-[(3S)-3-methyl-4-{4-[(3-methyl-4-{[1,2,4]triazolo[1,5-a]pyridin-7-ylmethyl}phenyl)amino]pyrido[3,2-d]pyrimidin-6-yl}piperazin-1-yl]but-2-en-1-one]	145 nM	43.9 nM	> 10000 nM
C=CC(=O)N1CCN(c2ccc3ncnc(Nc4ccc(Cc5ccn6ncnc6c5)c(C)c4)c3c2)CC1 [Compound 81, 1-(4-(4-((4-([1,2,4]triazolo[1,5-a]pyridin-7-ylmethyl)-3-methylphenyl)amino)quinazolin-6-yl)piperazin-1-yl)prop-2-en-1-one]	17.8 nM	11 nM	2360 nM
C=CC(=O)N1CCN(c2cc3c(Nc4ccc(Cc5ccc6c(c5)ncn6C)c(C)c4)ncnc3cn2)[C@@H](C)C1 [Compound 86, 1-[(3S)-3-methyl-4-[4-({3-methyl-4-[(1-methyl-1,3-benzodiazol-5-yl)methyl]phenyl}amino)pyrido[3,4-d]pyrimidin-6-yl]piperazin-1-yl]prop-2-en-1-one]	20.5 nM	48.4 nM	3180 nM
C=CC(=O)N1CCN(c2ncc3ncnc(Nc4ccc(Oc5ccc6c(c5)ncn6C)c(C)c4)c3n2)C[C@H]1C [Compound 57, (R)-1-(2-methyl-4-(8-((3-methyl-4-((1-methyl-1H-benzo[d]imidazol-5-yl)oxy)phenyl)amino)pyrimido[5,4-d]pyrimidin-2-yl)piperazin-1-yl)prop-2-en-1-one]	21 nM	25.8 nM	2880 nM
CC#CC(=O)N1C2CCC1CN(c1ccc3ncnc(Nc4ccc(Oc5ccn6ncnc6c5)c(C)c4)c3n1)C2 [Compound 27, 1-(3-{4-[(3-methyl-4-{[1,2,4]triazolo[1,5-a]pyridin-7-yloxy}phenyl)amino]pyrido[3,2-d]pyrimidin-6-yl}-3,8-diazabicyclo[3.2.1]octan-8-yl)but-2-yn-1-one]	27.4 nM	60.4 nM	2800 nM
CC#CC(=O)N1CCN(c2ccc3ncnc(Nc4ccc(Oc5ccn6ncnc6c5)c(C)c4)c3n2)[C@@H](C)C1 [Compound 25, 1-[(3S)-3-methyl-4-{4-[(3-methyl-4-{[1,2,4]triazolo[1,5-a]pyridin-7-yloxy}phenyl)amino]pyrido[3,2-d]pyrimidin-6-yl}piperazin-1-yl]but-2-yn-1-one]	23.4 nM	63.5 nM	> 10000 nM
